The values that follow come from patent US11420969B2 (Exonate Limited, priority 2017, dated 2022).

The target in assay [1] is T1, CYP1A2 (Homo sapiens, UniProt P05177).
T1 construct: from tissue; host or cells: human liver microsomes
T1 sequence (P05177 1-516): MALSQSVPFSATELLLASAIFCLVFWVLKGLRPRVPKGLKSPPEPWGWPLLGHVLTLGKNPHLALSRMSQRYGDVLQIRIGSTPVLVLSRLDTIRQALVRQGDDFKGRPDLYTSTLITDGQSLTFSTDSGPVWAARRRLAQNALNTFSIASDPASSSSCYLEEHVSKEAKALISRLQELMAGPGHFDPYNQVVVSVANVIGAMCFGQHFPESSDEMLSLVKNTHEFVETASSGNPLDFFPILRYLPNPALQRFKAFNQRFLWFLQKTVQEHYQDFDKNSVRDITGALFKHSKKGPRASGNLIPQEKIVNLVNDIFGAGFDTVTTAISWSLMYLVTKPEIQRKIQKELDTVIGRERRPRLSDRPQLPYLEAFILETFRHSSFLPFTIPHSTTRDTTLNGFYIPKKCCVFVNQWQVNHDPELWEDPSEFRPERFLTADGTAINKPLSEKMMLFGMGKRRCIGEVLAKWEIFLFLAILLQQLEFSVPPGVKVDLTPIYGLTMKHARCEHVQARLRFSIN
The assay can be described thus: CYP inhibition assay, human liver microsomes, substrate tacrine. As to conditions: human liver microsomes, 10 min incubation, LC-MS/MS; read-out: CYP Inhibition Activity (IC50/nM) CYP1A2. The format is in vitro ADME. The method in brief: (§1)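 Metabolite formation measured by LC-MS/MS after quench with cold acetonitrile, yielding % inhibition and IC50. Reactions ran 10 min at 37° C after NADPH addition, following 20 min pre-incubation of substrate pool and inhibitor with human liver microsomes.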
For orientation: Liver microsomes are vesicles of endoplasmic reticulum, rich in cytochrome P450 enzymes.

In assay [2] the target is T2, CYP3A4 (Homo sapiens, UniProt P08684).
T2 construct: from tissue; host or cells: human liver microsomes
The experiment in a line: CYP inhibition assay, human liver microsomes, substrate midazolam. The assay is classed as in vitro ADME. As to conditions: human liver microsomes, 10 min incubation, LC-MS/MS; read-out: CYP Inhibition Activity (IC50/nM) CYP3A4. Summed up:
as §1

In assay [3] the target is SRPK1 (Homo sapiens, UniProt Q96SB4). The assay can be described thus: In vitro SRPK1 assay (Kinase-Glo). The format is biochemical.
Assay [4] addresses T3, CYP2C19 (Homo sapiens, UniProt P33261).
T3 construct: from tissue; host or cells: human liver microsomes
The assay can be described thus: CYP inhibition assay, human liver microsomes, substrate S-mephenytoin. The format is in vitro ADME. Conditions: human liver microsomes, 10 min incubation, LC-MS/MS; read-out: CYP Inhibition Activity (IC50/nM) CYP2C19. The method in brief: as §1

The target in assay [5] is T4, CYP2D6 (Homo sapiens, UniProt P10635).
T4 construct: from tissue; host or cells: human liver microsomes
The assay can be described thus: biochemical. The format is in vitro ADME. The method in brief:
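Read-out is LC-MS/MS of supernatant, giving % inhibition and IC50 relative to a no-inhibitor ACN/DMSO control. Compound and substrate pool were pre-incubated 20 min at 37° C with human liver microsomes (working stock 0.253 mg/mL) before a 10 min NADPH-driven reaction, quenched with cold ACN.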

For assay [6], the target named is T5, CYP2C9 (Homo sapiens, UniProt P11712).
T5 construct: from tissue; host or cells: human liver microsomes
The experiment in a line: CYP inhibition assay, human liver microsomes, substrate diclofenac. The format is in vitro ADME. As to conditions: human liver microsomes, 10 min incubation, LC-MS/MS; read-out: CYP Inhibition Activity (IC50/nM) CYP2C9. Summed up: as §1

T4 sequence (P10635 whole entry): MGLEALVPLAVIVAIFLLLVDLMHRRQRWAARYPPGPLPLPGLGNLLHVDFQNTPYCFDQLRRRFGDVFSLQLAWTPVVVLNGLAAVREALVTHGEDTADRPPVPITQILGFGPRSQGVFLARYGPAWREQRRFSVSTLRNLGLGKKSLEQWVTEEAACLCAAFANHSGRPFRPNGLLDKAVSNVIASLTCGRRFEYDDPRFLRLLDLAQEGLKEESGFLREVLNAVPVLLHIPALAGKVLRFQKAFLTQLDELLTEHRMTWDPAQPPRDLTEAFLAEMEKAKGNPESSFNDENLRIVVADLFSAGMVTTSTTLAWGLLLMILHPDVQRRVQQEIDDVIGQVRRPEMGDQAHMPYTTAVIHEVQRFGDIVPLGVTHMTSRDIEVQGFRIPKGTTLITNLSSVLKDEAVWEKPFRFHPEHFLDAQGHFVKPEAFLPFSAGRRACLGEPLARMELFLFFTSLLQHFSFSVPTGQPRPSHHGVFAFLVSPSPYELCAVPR
T5 sequence (P11712 whole entry): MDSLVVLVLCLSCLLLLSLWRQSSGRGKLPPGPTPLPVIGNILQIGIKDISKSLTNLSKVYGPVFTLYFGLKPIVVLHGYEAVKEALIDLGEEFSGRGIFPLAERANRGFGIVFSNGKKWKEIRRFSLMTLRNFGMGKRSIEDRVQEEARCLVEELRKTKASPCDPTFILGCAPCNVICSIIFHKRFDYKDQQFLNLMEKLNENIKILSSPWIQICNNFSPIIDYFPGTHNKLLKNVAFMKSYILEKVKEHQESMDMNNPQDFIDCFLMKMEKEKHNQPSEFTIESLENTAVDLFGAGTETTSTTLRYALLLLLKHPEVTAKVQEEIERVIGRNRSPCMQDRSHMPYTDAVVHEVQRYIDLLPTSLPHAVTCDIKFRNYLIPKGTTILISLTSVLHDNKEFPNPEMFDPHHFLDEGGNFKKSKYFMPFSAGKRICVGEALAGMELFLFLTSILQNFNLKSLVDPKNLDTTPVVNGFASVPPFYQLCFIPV
T2 sequence (P08684 whole entry): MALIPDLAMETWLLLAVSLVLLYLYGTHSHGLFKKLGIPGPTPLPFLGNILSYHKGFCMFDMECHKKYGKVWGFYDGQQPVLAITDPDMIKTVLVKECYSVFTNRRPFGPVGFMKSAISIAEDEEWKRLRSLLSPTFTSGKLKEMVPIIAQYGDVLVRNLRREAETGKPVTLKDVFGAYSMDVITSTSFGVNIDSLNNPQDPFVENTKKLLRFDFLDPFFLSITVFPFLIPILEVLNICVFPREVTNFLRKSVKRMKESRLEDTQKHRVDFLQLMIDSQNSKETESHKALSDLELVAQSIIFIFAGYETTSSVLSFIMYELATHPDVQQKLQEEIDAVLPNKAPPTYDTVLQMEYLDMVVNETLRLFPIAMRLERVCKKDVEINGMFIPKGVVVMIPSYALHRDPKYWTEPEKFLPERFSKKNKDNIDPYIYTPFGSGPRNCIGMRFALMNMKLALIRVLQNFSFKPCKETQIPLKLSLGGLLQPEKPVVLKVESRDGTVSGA
SRPK1, sequence (Q96SB4 whole entry, species assumed): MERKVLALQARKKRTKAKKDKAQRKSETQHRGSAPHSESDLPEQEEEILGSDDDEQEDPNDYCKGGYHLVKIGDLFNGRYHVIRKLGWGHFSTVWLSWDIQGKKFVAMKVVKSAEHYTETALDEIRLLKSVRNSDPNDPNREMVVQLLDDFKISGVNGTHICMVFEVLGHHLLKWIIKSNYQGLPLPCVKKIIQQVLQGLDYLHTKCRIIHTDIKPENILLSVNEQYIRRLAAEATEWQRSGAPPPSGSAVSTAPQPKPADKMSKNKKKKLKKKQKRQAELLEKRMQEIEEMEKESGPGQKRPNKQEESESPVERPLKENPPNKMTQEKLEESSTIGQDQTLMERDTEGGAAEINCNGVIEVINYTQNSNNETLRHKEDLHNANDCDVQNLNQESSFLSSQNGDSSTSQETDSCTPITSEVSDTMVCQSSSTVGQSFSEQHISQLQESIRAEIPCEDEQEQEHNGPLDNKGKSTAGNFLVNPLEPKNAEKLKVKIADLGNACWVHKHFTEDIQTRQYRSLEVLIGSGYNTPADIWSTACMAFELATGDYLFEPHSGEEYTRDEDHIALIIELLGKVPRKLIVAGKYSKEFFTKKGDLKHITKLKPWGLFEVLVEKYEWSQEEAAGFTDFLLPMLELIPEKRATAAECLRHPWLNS
T3 sequence (P33261 whole entry): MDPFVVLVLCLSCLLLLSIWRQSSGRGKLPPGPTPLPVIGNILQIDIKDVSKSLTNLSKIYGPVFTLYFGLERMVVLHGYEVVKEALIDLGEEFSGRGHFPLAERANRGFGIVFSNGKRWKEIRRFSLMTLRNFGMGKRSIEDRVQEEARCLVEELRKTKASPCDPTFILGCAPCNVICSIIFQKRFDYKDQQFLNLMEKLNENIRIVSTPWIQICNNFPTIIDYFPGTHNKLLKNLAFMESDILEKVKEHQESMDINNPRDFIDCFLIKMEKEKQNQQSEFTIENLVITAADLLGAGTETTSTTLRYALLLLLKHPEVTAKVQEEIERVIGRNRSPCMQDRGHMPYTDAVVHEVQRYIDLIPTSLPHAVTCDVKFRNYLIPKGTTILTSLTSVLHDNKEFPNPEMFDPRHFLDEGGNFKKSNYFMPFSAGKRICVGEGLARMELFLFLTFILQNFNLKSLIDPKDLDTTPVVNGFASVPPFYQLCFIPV

Consider `CC1(O)CCN(c2ccc(C3CC3)cc2NC(=O)c2ccc(-c3ccncc3)o2)CC1` [Example 6, N-(5-cyclopropyl-2-(4-hydroxy-4-methylpiperidin-1-yl)phenyl)-5-(pyridin-4-yl)furan-2-carboxamide], for which the IC50 in assay [1] is 11700 nM; in assay [2], 1050 nM; in assay [3] it was 1.7 nM; in assay [4], 1010 nM; in assay [5], 4.83 µM; in assay [6], 790 nM.

On to `CC1(O)CCN(c2ccc(C(F)F)cc2NC(=O)c2ccc(-c3ccncc3)o2)CC1` [Example 7, N-(5-(difluoromethyl)-2-(4-hydroxy-4-methyl-piperidin-1-yl)phenyl)-5-(pyridin-4-yl)furan-2-carboxamide], for which the IC50 in assay [1] is 4000 nM; in assay [2], 1200 nM; in assay [3], 1.7 nM; in assay [4], 1400 nM; in assay [5], 2.3 µM; in assay [6], 600 nM.

On to `C[C@]1(O)CCN(c2ccc(C(F)(F)F)cc2NC(=O)c2ccc(C3CCOCC3)o2)C1` [Example 51, (S)-N-(2-(3-hydroxy-3-methylpyrrolidin-1-yl)-5-(trifluoromethyl)phenyl)-5-(tetrahydro-2H-pyran-4-yl)furan-2-carboxamide], for which the IC50 is more than 30000 nM in assay [1]; more than 30000 nM in assay [2]; 96 nM in assay [3]; 20100 nM in assay [4]; more than 30 µM in assay [5]; more than 30000 nM in assay [6].

`CN(C)C(=O)C1(C)CCN(c2ccc(C(F)(F)F)cc2NC(=O)c2ccc(C3CCOCC3)o2)CC1` [Example 77, N,N,4-trimethyl-1-(2-(5-(tetrahydro-2H-pyran-4-yl)furan-2-carboxamido)-4-(trifluoromethyl)-phenyl)piperidine-4-carboxamide]: the IC50 in assay [1] is more than 30000 nM; in assay [2] it was 970 nM; in assay [3], 1.6 nM; in assay [4], 4780 nM; in assay [5], 9.54 µM; in assay [6], 1440 nM.

For the molecule `CC1(CO)CCN(c2ccc(Cl)cc2NC(=O)c2ccc(C3CCOCC3)o2)CC1` [Example 68, N-(5-chloro-2-(4-(hydroxymethyl)-4-methyl-piperidin-1-yl)phenyl)-5-(tetrahydro-2H-pyran-4-yl)furan-2-carboxamide], the IC50 in assay [1] was more than 30000 nM; in assay [2], 10900 nM; in assay [3], 1.2 nM; in assay [4], 11400 nM; in assay [5], 16.1 µM; in assay [6] it was 2800 nM.

`O=C(Nc1cc(Cl)ccc1N1CCCC(O)CC1)c1ccc(-c2ccncc2)o1` (racemic) [Example 45, N-(5-chloro-2-(4-hydroxyazepan-1-yl)phenyl)-5-(pyridin-4-yl)furan-2-carboxamide]: the IC50 in assay [1] was found to be 550 nM; in assay [2] it was 1430 nM; in assay [3], 30 nM; in assay [4], 100 nM; in assay [5], 0.66 µM; in assay [6] it was 410 nM.

Regarding `O=C(Nc1cc(C2CC2)ccc1N1CCCC(O)CC1)c1ccc(-c2ccncc2)o1` (racemic) [Example 46, N-(5-cyclopropyl-2-(4-hydroxyazepan-1-yl)phenyl)-5-(pyridin-4-yl)furan-2-carboxamide], the IC50 amounted to 6240 nM in assay [1]; 2130 nM in assay [2]; 8.7 nM in assay [3]; 1180 nM in assay [4]; 1.52 µM in assay [5]; 1060 nM in assay [6].

In the case of `CC1(O)CCN(c2ccc(C(F)(F)F)cc2NC(=O)c2ccc(C3CCOCC3)o2)CC1` [Example 11, N-(2-(4-hydroxy-4-methylpiperidin-1-yl)-5-(trifluoromethyl)-phenyl)-5-(tetrahydro-2H-pyran-4-yl)furan-2-carboxamide], the IC50 in assay [1] was 17900 nM; in assay [2], 16300 nM; in assay [3], 3 nM; in assay [4] it was 10200 nM; in assay [5], 15.4 µM; in assay [6], 9310 nM.

Consider `C[C@@]1(O)CCN(c2ccc(C(F)(F)F)cc2NC(=O)c2ccc(C3CCOCC3)o2)C1` [Example 50, (R)-N-(2-(3-hydroxy-3-methylpyrrolidin-1-yl)-5-(trifluoromethyl)phenyl)-5-(tetrahydro-2H-pyran-4-yl)furan-2-carboxamide], for which the IC50 is 5300 nM in assay [1]; more than 30000 nM in assay [2]; 28.8 nM in assay [3]; 24500 nM in assay [4]; more than 30 µM in assay [5]; 9000 nM in assay [6].

In the case of `Cc1ccc(N2CCC(C)(O)C2)c(NC(=O)c2ccc(C3CCOCC3)o2)c1` (racemic) [Example 58, N-(2-(3-hydroxy-3-methylpyrrolidin-1-yl)-5-methylphenyl)-5-(tetrahydro-2H-pyran-4-yl)-furan-2-carboxamide], the IC50 in assay [1] was more than 30000 nM; in assay [2], 23200 nM; in assay [3], 204 nM; in assay [4], more than 30000 nM; in assay [5], more than 30 µM; in assay [6], more than 30000 nM.

In the case of `CC1(C)CCN(c2ccc(C(F)(F)F)cc2NC(=O)c2ccc(C3CCOCC3)o2)CC1` [Example 29, N-(2-(4,4-dimethylpiperidin-1-yl)-5-(trifluoromethyl)phenyl)-5-(tetrahydro-2H-pyran-4-yl)furan-2-carboxamide], the IC50 in assay [1] was more than 30000 nM; in assay [2], more than 30000 nM; in assay [3], 6 nM; in assay [4], more than 30000 nM; in assay [5], more than 30 µM; in assay [6], more than 30000 nM.

Turning to `CC1(O)CCN(c2ccc(C3CC3)cc2NC(=O)c2ccc(C3CCOCC3)o2)C1` (racemic) [Example 59, N-(5-cyclopropyl-2-(3-hydroxy-3-methyl-pyrrolidin-1-yl)phenyl)-5-(tetrahydro-2H-pyran-4-yl)furan-2-carboxamide], the IC50 was 10500 nM in assay [1]; more than 30000 nM in assay [2]; 54 nM in assay [3]; 10500 nM in assay [4]; 23.9 µM in assay [5]; 15000 nM in assay [6].

Regarding `Cc1ccc(N2CCC(C)(O)CC2)c(NC(=O)c2ccc(-c3ccncc3)o2)c1` [Example 8, N-(2-(4-hydroxy-4-methylpiperidin-1-yl)-5-methylphenyl)-5-(pyridin-4-yl)furan-2-carboxamide], the IC50 worked out at 11100 nM in assay [1]; 1700 nM in assay [2]; 14.4 nM in assay [3]; 2900 nM in assay [4]; 6.1 µM in assay [5]; 1100 nM in assay [6].

Consider `CC1(CO)CCN(c2ccc(C(F)(F)F)cc2NC(=O)c2ccc(C3CCOCC3)o2)CC1` [Example 25, N-(2-(4-(hydroxymethyl)-4-methylpiperidin-1-yl)-5-(trifluoromethyl)phenyl)-5-(tetrahydro-2H-pyran-4-yl)furan-2-carboxamide], for which the IC50 is more than 30000 nM in assay [1]; more than 30000 nM in assay [2]; 2 nM in assay [3]; 15800 nM in assay [4]; more than 30 µM in assay [5]; 4960 nM in assay [6].

Consider `CNCC1(C)CCN(c2ccc(C(F)(F)F)cc2NC(=O)c2ccc(-c3ccncc3)o2)CC1` [Example 79, N-(2-(4-methyl-4-((methylamino)-methyl)piperidin-1-yl)-5-(trifluoromethyl)phenyl)-5-(pyridin-4-yl)furan-2-carboxamide], for which the IC50 in assay [1] is more than 30000 nM; in assay [2], 4500 nM; in assay [3] it was 263 nM; in assay [4], 17800 nM; in assay [5], 0.4 µM; in assay [6], more than 30000 nM.

As for `CC1(C(N)=O)CCN(c2ccc(C(F)(F)F)cc2NC(=O)c2ccc(-c3ccncc3)o2)CC1` [Example 72, 4-methyl-1-(2-(5-(pyridin-4-yl)furan-2-carboxamido)-4-(trifluoromethyl)phenyl)-piperidine-4-carboxamide], the IC50 is more than 30000 nM in assay [1]; 2370 nM in assay [2]; 1.9 nM in assay [3]; 7540 nM in assay [4]; 4.13 µM in assay [5]; 2360 nM in assay [6].
